We go through two compounds from patent US20130102595A1 (Curis, Inc., priority 2011, published 2013).

In data set [1] the target is T1, mTor serine/threonine protein kinase (Homo sapiens, UniProt P42345).
T1 construct: FLAG; made in house; host or cells: Baculovirus expression system in Sf21 cells
As to the kind of experiment: mTor kinase radioisotope assay. The format is biochemical. The conditions noted are these: 70 uM ATP, 40 minutes; read-out: m-TOR IC50. In short, it runs like this: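 FLAG-tagged full-length recombinant human mTor from baculovirus/Sf21, incubated with p70S6K C-terminal fragment (2 mg/ml) and 70 uM ATP plus 33P-ATP tracer in 50 mM HEPES pH 7.5, 3 mM MnCl2, 40 min at room temperature. Phosphoric acid stop, filtermat capture, scintillation counting; IC50 from sigmoidal dose-response fit.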

Another data set relates to CaPan2. Put plainly: Cell proliferation assay (CellTiter-Glo). The format is cell-based. The conditions noted are these: Homo sapiens, Capan-2; Pancreas; 72 hours, 0.5% fetal bovine serum; read-out: antiproliferative activity IC50, CaPan2. In short, it runs like this:
(§1)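 Plate 5,000 to 10,000 cells per well with compound at several concentrations. Incubate 72 hours in medium with 0.5% fetal bovine serum. Add lysis/luciferase reagent, incubate 30 minutes, and measure luminescence as ATP content.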

The next data set deals with H2122. As to the kind of experiment: Cell proliferation assay (CellTiter-Glo). It is filed as cell-based. Particulars: Homo sapiens, NCI-H2122; NSCLC; 72 hours, 0.5% fetal bovine serum; read-out: antiproliferative activity IC50, H2122. In short, it runs like this: as §1
Another data set has as its system SW403. As to the kind of experiment: Cell proliferation assay (CellTiter-Glo). The format is cell-based. The conditions noted are these: Homo sapiens, SW-403; Colon; 72 hours, 0.5% fetal bovine serum; read-out: antiproliferative activity IC50, SW403. In short, it runs like this:
as §1

The next data set concerns WiDr. As to the kind of experiment: Cell proliferation assay (CellTiter-Glo). The conditions noted are these: Homo sapiens, Colon, 72 hours, 0.5% fetal bovine serum, read-out: antiproliferative activity IC50, WiDr. It is filed as cell-based. In short, it runs like this:
as §1

A further data set concerns MiaPaca1. As to the kind of experiment: Cell proliferation assay (CellTiter-Glo). The format is cell-based. The conditions noted are these: Pancreas; 72 hours, 0.5% fetal bovine serum; read-out: antiproliferative activity IC50, MiaPaca1. In short, it runs like this:
as §1

For another data set, the system named is H460. As to the kind of experiment: Cell proliferation assay (CellTiter-Glo). The conditions noted are these: Homo sapiens, NCI-H460; NSCLC; 72 hours, 0.5% fetal bovine serum; read-out: antiproliferative activity IC50, H460. It is filed as cell-based. In short, it runs like this: as §1
The subject of the next data set is CFPAC-1. As to the kind of experiment: Cell proliferation assay (CellTiter-Glo). It is filed as cell-based. The conditions noted are these: Homo sapiens, Pancreas, 72 hours, 0.5% fetal bovine serum, read-out: antiproliferative activity IC50, CFPAC-1. In short, it runs like this: as §1
A further data set relates to SW620. Put plainly: Cell proliferation assay (CellTiter-Glo). It is filed as cell-based. The conditions noted are these: Homo sapiens, SW-620; Colon; 72 hours, 0.5% fetal bovine serum; read-out: antiproliferative activity IC50, SW620. In short, it runs like this: as §1
The test system of the next data set is A549. As to the kind of experiment: Cell proliferation assay (CellTiter-Glo). The format is cell-based. The conditions noted are these: Homo sapiens, NSCLC, 72 hours, 0.5% fetal bovine serum, read-out: antiproliferative activity IC50, A549. In short, it runs like this:
as §1

The next data set has as its system T-84. Put plainly: Cell proliferation assay (CellTiter-Glo). It is filed as cell-based. The conditions noted are these: Homo sapiens, T84; Colon; 72 hours, 0.5% fetal bovine serum; read-out: antiproliferative activity IC50, T-84. In short, it runs like this: as §1
A further data set concerns H358. Put plainly: Cell proliferation assay (CellTiter-Glo). The conditions noted are these: Homo sapiens, NCI-H358; NSCLC; 72 hours, 0.5% fetal bovine serum; read-out: antiproliferative activity IC50, H358. It is filed as cell-based. In short, it runs like this:
as §1

Another data set concerns SW1990. Put plainly: Cell proliferation assay (CellTiter-Glo). It is filed as cell-based. The conditions noted are these: Homo sapiens, Pancreas, 72 hours, 0.5% fetal bovine serum, read-out: antiproliferative activity IC50, SW1990. In short, it runs like this:
as §1

In a further data set the test system is PANC-1. As to the kind of experiment: Cell proliferation assay (CellTiter-Glo). It is filed as cell-based. Particulars: Homo sapiens, Pancreas, 72 hours, 0.5% fetal bovine serum, read-out: antiproliferative activity IC50, PANC-1. In short, it runs like this:
as §1

The subject of a further data set is SWI-116. Put plainly: Cell proliferation assay (CellTiter-Glo). The format is cell-based. The conditions noted are these: Colon; 72 hours, 0.5% fetal bovine serum; read-out: antiproliferative activity IC50, SWI-116. In short, it runs like this: as §1
A further data set concerns HCT116. Put plainly: Cell proliferation assay (CellTiter-Glo). The format is cell-based. Particulars: Homo sapiens, HCT-116; Colon; 72 hours, 0.5% fetal bovine serum; read-out: antiproliferative activity IC50, HCT116. In short, it runs like this: as §1
Another data set concerns Calu6. As to the kind of experiment: Cell proliferation assay (CellTiter-Glo). The format is cell-based. Particulars: Homo sapiens, Calu-6; NSCLC; 72 hours, 0.5% fetal bovine serum; read-out: antiproliferative activity IC50, Calu6. In short, it runs like this:
as §1

The next data set has as its system OPM-2. Put plainly: Cell proliferation assay (CellTiter-Glo). Particulars: Homo sapiens, Multiple Myeloma, 72 hours, 0.5% fetal bovine serum, read-out: antiproliferative activity IC50, OPM-2. The format is cell-based. In short, it runs like this: as §1
In the next data set the test system is H292. Put plainly: Cell proliferation assay (CellTiter-Glo). Particulars: Homo sapiens, NCI-H292; NSCLC; 72 hours, 0.5% fetal bovine serum; read-out: antiproliferative activity IC50, H292. It is filed as cell-based. In short, it runs like this:
as §1

Data set [2] has as its system HDACs (HeLa cell nuclear extracts). Put plainly: HDAC enzymatic activity, Biomol Color de Lys system. The format is biochemical. Particulars: 1 hour, 25° C. In short, it runs like this: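 IC50 from sigmoidal fit of developer-terminated fluorescence (ex 350-380/em 440-460 nm). Reaction: 1 h at room temperature (25 °C), HeLa nuclear extract as HDAC source, artificial substrate, buffer of 50 mM Tris/Cl pH 8.0 with 137 mM NaCl, 2.7 mM KCl and 1 mM MgCl2.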

A further data set deals with T2, PI3Kδ (p110δ/p85α) (Homo sapiens, UniProt O00329).
T2 construct: GST (N); made in house; host or cells: Baculovirus-infected Sf9 cells
Put plainly: PI3Kδ ADP-Glo assay. The format is biochemical. Particulars: 20 μM PIP2, 10 μM ATP, 90 minutes. As to the method:
(c) an In Vitro Assay which Determines the Ability of a Test Compound to Inhibit PI3Kδ.
(§2) Activity of PI3Kδ was measured using ADP-Glo assay from Promega. PI3Kδ, a complex of N-terminal GST-tagged recombinant full-length human p110δ (GenBank, Accession No. NM_005026) and untagged recombinant full length human p85α (GenBank Accession No. XM—043865) were co-expressed in a Baculovirus infected Sf9 cell expression system. The ADP-Glo assay was performed to measure the amount of ADP generated from ATP hydrolysis coupled with PIP2 phosphorylation by the purified recombinant PI3Kδ (p110δ/p85α). PI3Kδ was incubated with 20 μM PIP2 substrate in the reaction buffer (10 mM Tris-HCl, pH 7.5, 50 mM NaCl, 5 mM MgCl2, 10 μM ATP and 0.5% DMSO) for 90 minutes at room temperature. The ADP generated was then detected by ADP-Glo assay from Promega, a luminescent ADP detection assay. The ADP-Glo assay is performed in two steps; first, after the kinase reaction, ADP-Glo Reagent is added to terminate the kinase reaction and deplete the remaining ATP. Second, the Kinase Detection Reagent is added to simultaneously convert ADP to ATP and allow the newly synthesized ATP to be measured using a luciferase/luciferin reaction.

A further data set has as its target T3, PI3Kγ (p120γ) (Homo sapiens, UniProt P48736).
T3 construct: His (N); made in house; host or cells: Baculovirus-infected Sf9 cells
Put plainly: PI3Kγ ADP-Glo assay. The format is biochemical. Particulars: 20 μM PIP2, 10 μM ATP, 90 minutes. As to the method:
(d) an In Vitro Assay which Determines the Ability of a Test Compound to Inhibit PI3Kγ.
Activity of PI3Kγ was measured using ADP-Glo assay from Promega. PI3Kγ, N-terminal His-tagged recombinant full-length human p120γ (GenBank, Accession No. AF327656) was expressed in a Baculovirus infected Sf9 cell expression system. The ADP-Glo assay was performed to measure the amount of ADP generated from ATP hydrolysis coupled with PIP2 phosphorylation by the purified recombinant PI3Kγ […]. PI3Kγ was incubated with 20 μM PIP2 substrate in the reaction buffer (10 mM Tris-HCl, pH 7.5, 50 mM NaCl, 5 mM MgCl2, 10 μM ATP and 0.5% DMSO) for 90 minutes at room temperature. The ADP generated was then detected by ADP-Glo assay from Promega, a luminescent ADP detection assay. The ADP-Glo assay is performed in two steps; first, after the kinase reaction, ADP-Glo Reagent is added to terminate the kinase reaction and deplete the remaining ATP. Second, the Kinase Detection Reagent is added to simultaneously convert ADP to ATP and allow the newly synthesized ATP to be measured using a luciferase/luciferin reaction.

For the next data set, the target named is T4, PI3Kα (p110α/p85α) (Homo sapiens, UniProt P42336).
T4 construct: GST (N); made in house; host or cells: Baculovirus-infected Sf9 cells
As to the kind of experiment: PI3Kα ADP-Glo assay. It is filed as biochemical. The conditions noted are these: 20 μM PIP2, 10 μM ATP, 30 minutes. In short, it runs like this:
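Luminescent ADP-Glo detection, after depletion of residual ATP, quantified ADP made by PI3Kα phosphorylating 20 μM PIP2 at 10 μM ATP. The kinase step ran 30 min at room temperature in HEPES pH 7.4 with MgCl2, DTT and orthovanadate, using baculovirus/Sf9-expressed full-length p110α/p85α complex.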

Another data set has as its target T5, PI3Kβ (p110β/p85α) (Homo sapiens, UniProt P42338).
T5 construct: His (N); made in house; host or cells: Baculovirus-infected Sf9 cells
As to the kind of experiment: PI3Kβ ADP-Glo assay. It is filed as biochemical. Particulars: 20 μM PIP2, 10 μM ATP, 90 minutes. As to the method:
(B) an In Vitro Assay which Determines the Ability of a Test Compound to Inhibit PI3Kβ.
as §2, with “PI3Kβ” for “PI3Kδ”, “[…],” for “PI3Kδ,”, “His-tagged” for “GST-tagged”, “p110β” for “p110δ”, “NM_006219)” for “NM_005026)”, “PI3Kβ (p110β/p85α). PI3Kβ” for “PI3Kδ (p110δ/p85α). PI3Kδ”

T3 sequence (P48736 whole entry): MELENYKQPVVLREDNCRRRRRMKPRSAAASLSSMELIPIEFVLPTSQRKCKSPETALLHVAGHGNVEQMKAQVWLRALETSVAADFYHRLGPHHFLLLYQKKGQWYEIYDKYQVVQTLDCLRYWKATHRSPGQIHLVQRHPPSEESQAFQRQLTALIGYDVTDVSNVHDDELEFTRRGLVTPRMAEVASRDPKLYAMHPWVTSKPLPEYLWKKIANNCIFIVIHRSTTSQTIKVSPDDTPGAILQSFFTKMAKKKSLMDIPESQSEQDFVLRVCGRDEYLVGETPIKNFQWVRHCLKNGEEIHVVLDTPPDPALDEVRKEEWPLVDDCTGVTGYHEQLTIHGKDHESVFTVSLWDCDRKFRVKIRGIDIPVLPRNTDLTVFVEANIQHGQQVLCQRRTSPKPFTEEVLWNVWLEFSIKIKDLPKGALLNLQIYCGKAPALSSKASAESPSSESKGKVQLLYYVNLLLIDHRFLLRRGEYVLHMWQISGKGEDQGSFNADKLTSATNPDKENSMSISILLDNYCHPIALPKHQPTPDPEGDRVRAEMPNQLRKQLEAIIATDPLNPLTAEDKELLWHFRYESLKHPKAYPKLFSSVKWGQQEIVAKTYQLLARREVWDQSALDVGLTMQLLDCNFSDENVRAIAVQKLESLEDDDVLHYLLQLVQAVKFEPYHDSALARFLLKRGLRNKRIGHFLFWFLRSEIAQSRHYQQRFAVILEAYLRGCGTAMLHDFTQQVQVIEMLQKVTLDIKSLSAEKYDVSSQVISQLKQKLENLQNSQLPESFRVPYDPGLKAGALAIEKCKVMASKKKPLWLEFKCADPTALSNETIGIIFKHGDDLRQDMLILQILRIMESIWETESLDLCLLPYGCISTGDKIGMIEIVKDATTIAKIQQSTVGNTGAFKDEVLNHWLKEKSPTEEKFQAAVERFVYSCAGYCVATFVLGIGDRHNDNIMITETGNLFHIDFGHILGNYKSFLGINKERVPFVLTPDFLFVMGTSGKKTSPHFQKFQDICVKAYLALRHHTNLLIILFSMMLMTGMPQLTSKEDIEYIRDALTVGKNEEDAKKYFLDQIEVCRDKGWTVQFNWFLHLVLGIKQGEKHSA
T5 sequence (P42338 whole entry): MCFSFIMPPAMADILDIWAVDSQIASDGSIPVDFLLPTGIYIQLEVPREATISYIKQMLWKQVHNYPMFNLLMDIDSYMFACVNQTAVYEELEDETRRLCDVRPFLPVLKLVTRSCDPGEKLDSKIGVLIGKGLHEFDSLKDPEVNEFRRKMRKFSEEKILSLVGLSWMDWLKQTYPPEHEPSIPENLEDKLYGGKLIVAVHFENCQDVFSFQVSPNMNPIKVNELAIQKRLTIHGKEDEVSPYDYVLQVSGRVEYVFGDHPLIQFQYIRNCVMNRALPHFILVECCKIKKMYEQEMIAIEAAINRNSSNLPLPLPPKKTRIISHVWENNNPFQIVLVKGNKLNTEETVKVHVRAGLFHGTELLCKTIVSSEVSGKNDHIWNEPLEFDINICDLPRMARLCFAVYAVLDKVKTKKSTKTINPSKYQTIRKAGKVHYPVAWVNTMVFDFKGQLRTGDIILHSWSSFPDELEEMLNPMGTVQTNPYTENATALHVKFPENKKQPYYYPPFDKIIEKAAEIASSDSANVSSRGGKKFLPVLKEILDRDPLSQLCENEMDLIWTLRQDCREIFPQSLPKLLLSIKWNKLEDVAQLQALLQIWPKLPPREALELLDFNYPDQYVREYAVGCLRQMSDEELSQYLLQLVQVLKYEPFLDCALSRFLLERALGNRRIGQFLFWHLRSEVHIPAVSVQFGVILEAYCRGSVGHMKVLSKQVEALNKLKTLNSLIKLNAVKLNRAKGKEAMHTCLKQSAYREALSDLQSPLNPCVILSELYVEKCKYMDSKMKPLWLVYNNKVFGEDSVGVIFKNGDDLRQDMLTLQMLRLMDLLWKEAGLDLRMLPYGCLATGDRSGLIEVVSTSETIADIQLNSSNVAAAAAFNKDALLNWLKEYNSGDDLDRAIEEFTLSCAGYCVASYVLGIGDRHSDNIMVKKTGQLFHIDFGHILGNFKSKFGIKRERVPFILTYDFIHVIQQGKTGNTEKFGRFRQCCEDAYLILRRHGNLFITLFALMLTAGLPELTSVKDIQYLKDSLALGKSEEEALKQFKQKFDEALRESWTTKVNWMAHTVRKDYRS
T5 sequence (P27986 whole entry partner): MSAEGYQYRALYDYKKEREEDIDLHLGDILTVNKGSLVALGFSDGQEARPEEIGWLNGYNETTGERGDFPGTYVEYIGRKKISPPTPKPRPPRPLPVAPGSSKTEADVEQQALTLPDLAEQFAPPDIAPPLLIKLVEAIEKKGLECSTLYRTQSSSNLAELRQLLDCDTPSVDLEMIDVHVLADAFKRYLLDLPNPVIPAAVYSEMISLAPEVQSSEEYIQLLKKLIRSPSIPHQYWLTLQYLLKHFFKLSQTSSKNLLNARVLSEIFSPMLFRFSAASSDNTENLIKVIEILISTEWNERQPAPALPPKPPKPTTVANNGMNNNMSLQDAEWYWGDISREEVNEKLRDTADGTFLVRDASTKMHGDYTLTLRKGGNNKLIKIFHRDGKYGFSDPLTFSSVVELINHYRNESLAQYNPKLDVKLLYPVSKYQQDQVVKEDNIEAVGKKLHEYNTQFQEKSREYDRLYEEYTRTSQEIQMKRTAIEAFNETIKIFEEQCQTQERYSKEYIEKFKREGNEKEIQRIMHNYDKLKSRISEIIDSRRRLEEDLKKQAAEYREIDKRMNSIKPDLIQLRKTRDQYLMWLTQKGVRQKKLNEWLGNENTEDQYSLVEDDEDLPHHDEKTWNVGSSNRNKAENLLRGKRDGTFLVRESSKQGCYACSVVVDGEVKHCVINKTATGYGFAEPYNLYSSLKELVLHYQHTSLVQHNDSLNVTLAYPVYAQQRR
T4 sequence (P42336 whole entry): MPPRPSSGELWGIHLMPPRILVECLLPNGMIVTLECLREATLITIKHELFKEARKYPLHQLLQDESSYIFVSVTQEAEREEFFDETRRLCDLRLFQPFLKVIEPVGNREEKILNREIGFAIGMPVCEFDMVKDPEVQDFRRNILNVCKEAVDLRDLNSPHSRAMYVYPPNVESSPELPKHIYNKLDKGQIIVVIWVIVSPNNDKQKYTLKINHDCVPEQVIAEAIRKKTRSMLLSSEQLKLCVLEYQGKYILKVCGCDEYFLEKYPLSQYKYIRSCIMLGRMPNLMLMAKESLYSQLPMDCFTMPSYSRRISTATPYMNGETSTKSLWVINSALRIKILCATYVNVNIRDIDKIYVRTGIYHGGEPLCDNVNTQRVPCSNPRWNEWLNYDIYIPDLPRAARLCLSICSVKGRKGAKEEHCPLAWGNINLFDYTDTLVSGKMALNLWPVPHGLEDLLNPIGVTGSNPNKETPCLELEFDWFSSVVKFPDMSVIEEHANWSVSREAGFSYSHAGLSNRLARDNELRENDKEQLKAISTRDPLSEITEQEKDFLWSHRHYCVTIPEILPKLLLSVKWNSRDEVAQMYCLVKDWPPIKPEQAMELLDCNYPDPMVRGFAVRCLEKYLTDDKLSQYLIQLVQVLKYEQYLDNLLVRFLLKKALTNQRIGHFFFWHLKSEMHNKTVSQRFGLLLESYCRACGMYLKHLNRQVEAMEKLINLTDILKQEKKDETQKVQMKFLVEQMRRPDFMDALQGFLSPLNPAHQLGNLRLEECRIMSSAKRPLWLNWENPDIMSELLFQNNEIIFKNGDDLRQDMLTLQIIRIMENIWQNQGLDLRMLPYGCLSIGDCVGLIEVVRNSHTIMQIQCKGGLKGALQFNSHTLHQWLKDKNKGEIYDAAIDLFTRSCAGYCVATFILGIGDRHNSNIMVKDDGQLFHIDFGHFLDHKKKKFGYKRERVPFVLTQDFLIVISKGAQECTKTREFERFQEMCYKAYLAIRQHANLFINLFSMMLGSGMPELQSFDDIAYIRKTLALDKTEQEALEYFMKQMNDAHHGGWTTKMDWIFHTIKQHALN
T4 sequence (P27986 whole entry partner): as the sequence (P27986 whole entry partner) above
T2 sequence (O00329 whole entry): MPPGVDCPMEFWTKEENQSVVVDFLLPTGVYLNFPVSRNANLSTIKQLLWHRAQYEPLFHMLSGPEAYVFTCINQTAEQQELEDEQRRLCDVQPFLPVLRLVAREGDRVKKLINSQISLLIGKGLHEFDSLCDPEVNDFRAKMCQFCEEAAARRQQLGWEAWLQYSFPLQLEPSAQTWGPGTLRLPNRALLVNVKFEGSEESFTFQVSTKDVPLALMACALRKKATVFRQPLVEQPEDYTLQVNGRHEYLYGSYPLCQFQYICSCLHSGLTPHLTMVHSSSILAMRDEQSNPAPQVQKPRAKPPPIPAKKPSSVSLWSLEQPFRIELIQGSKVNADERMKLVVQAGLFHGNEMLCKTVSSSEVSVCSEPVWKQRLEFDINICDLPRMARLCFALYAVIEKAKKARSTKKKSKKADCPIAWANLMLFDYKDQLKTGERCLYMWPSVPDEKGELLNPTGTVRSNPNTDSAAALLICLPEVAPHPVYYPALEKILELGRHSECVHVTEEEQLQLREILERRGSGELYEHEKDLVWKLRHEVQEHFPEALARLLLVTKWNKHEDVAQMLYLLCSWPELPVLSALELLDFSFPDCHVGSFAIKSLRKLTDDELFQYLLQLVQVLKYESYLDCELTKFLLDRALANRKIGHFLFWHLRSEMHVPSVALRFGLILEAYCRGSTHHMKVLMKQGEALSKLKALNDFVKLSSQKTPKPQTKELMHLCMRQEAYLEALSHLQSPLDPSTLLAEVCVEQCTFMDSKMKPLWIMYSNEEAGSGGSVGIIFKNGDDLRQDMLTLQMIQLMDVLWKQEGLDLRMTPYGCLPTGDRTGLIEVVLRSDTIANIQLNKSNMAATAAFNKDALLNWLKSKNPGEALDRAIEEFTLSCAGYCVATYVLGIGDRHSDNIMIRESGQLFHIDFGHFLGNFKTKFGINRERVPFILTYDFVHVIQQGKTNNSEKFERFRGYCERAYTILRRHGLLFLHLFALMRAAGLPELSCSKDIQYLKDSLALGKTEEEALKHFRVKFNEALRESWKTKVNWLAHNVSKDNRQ
T2 sequence (P27986 whole entry partner): as the sequence (P27986 whole entry partner) above

Regarding `COc1ccc(-c2nc(N3CCOCC3)c3sc(CN(C)c4ncc(C(=O)NO)cn4)cc3n2)cn1` [Compound 236, N-Hydroxy-2-(((2-(6-methoxypyridin-3-yl)-4-morpholinothieno[3,2-d]pyrimidin-6-yl)methyl)(methyl)amino)pyrimidine-5-carboxamide], the concentration for half-maximal inhibition (IC50) in [1] is 1 to 10 µM; in the data set on CaPan2 it was 0.01 to 0.1 µM; in the data set on H2122 it was < 0.01 µM; in the data set on SW403 it was < 0.01 µM; in the data set with WiDr, 0.01 to 0.1 µM; in the data set with MiaPaca1, 0.01 to 0.1 µM. The IC50 in the data set with H460 was 0.01 to 0.1 µM; in the data set with CFPAC-1, 0.01 to 0.1 µM; with SW620 it was < 0.01 µM; in the data set on A549, 0.01 to 0.1 µM; in the data set with T-84 it was 0.01 to 0.1 µM; with H358, < 0.01 µM. The 50% inhibitory concentration (IC50) was < 0.01 µM in the data set with SW1990; 0.01 to 0.1 µM with PANC-1; < 0.01 µM with SWI-116; < 0.01 µM with HCT116; 0.01 to 0.1 µM in the data set on Calu6; < 0.01 µM with OPM-2. The IC50 in the data set on H292 was < 0.01 µM; in [2], < 0.1 µM.

`O=C(NO)c1cnc(N2CCN(Cc3cc4nc(-c5cccc6[nH]ncc56)nc(N5CCOCC5)c4s3)CC2)nc1` [Compound 14] had a melting point of 209 to 221 °C. This compound showed an IC50 against PI3Kδ (p110δ/p85α) of 0.1 to 1 µM. Moreover, the half-maximal inhibitory concentration (IC50) against PI3Kγ (p120γ) was < 0.1 µM. Also, the half-inhibitory concentration (IC50) against PI3Kα (p110α/p85α) is < 0.1 µM. Besides, in data set [1], the IC50 lay within 1 to 10 µM. The half-maximal inhibitory concentration (IC50) at PI3Kβ (p110β/p85α) was < 0.1 µM. In data set [2], the half-maximal inhibitory concentration (IC50) is < 0.1 µM.
